# What was measured:
# [1] = tested on: QM and E PDAC monoculture and co-culture with CAF1; assay: FFX dose response in PDAC monoculture and co-culture with CAF1; assay type: cell-based, human; conditions: both monocultures and CAF co-culture conditions
# Description: (a) Dose response curves in QM and E PDAC monoculture and co-culture with CAF1, as well as CAF1 monoculture, following FFX treatment. (b) FFX IC50 for QM and E PDAC monoculture versus co-culture with CAF1. […] (a) Dose response curves in QM and E PDAC monoculture following combination 5z-7-oxozeaenol and FFX treatment. (b) Dose response curves in QM and E PDAC co-culture with CAF1 following combination 5z-7-oxozeaenol and FFX treatment. (c) Dose response curves in CAF1 monoculture following combination 5z-7-oxozeaenol and FFX treatment. […] (a) Dose response curves in QM and E PDAC monoculture following combination losartan and FFX treatment. (b) Dose response curves in QM and E PDAC co-culture with CAF1 following combination losartan and FFX treatment. (c) Dose response curves in CAF1 monoculture following combination losartan and FFX treatment. PDAC cells were co-cultured with fibroblasts (CAF) to more closely mimic the tumor microenvironment.
# CAF1 monoculture = assay: Dose response and combination treatment in CAF1 monoculture; assay type: cell-based; conditions: combination with FFX
# Description: FIGS. 7A-C. […] FIGS. 8A-C. […] Values indicate percent killing, as compared to untreated cells, such that 0 indicates no killing and 100 indicates all cells killed. (e) Combination drug treatments of CAF1 monoculture. Values indicate percent killing, as compared to untreated cells, such that 0 indicates no killing and 100 indicates all cells killed. […] In order to evaluate whether oxo could synergize with FOLFIRINOX, we performed combinatorial drug treatment in PDAC monoculture and PDAC/CAF co-culture settings (FIG. 9A). […] In order to assess for synergistic activity between Oxo and FOLFIRINOX, we used the Bliss independence model to analyze our drug combination experiments (Bliss, 1939; Yadav et al., 2015).
# [2] = tested on: PDAC monoculture and PDAC/CAF co-culture; assay: Combinatorial drug treatment, percent killing and Bliss synergy; assay type: cell-based, human
# Description: FIGS. 9A-E. Combinational drug treatment (Oxo+FFX) in PDAC alone or PDAC+CAF coculture. […] (b) Combination drug treatments of PDAC 3 and PDAC 6, as monoculture or co-culture with CAF1. Values indicate percent killing, as compared to untreated cells, such that 0 indicates no killing and 100 indicates all cells killed. (c) Bliss plots of synergistic activity between 5z-7-oxozeaenol and FFX, where positive values represent synergistic activity, negative values represent anti-synergistic activity, and 0 represents no synergy. Synergy data are based on values from 8B. (d) Combination drug treatments of PDAC 8 and PDAC 9, as monoculture or co-culture with CAF1. Values indicate percent killing, as compared to untreated cells, such that 0 indicates no killing and 100 indicates all cells killed. (e) Combination drug treatments of CAF1 monoculture. Values indicate percent killing, as compared to untreated cells, such that 0 indicates no killing and 100 indicates all cells killed. FIG. 10. Combinational drug treatment (Losartan+FFX) in PDAC alone or PDAC+CAF coculture. Combination drug treatments of PDAC 3 and PDAC 6, as monoculture or co-culture with CAF1. Values indicate percent killing, as compared to untreated cells, such that 0 indicates no killing and 100 indicates all cells killed. In order to evaluate whether oxo could synergize with FOLFIRINOX, we performed combinatorial drug treatment in PDAC monoculture and PDAC/CAF co-culture settings (FIG. 9A). […] In order to assess for synergistic activity between Oxo and FOLFIRINOX, we used the Bliss independence model to analyze our drug combination experiments (Bliss, 1939; Yadav et al., 2015).
# [3] = tested on: patient-derived PDAC cell lines; assay: RNA-ISH and total RNA sequencing of E/QM (EMT) signatures after Oxo treatment; assay type: cell-based, human; conditions: for E gene expression (RNA-ISH and RNA sequencing) / QM gene expression (RNA-ISH and RNA sequencing): Oxo 10 μM, 10 days, across PDAC cell lines
# Description: (c) PDAC3, 9 and 6 cells were treated with Oxo (10 μM) for 10 days in tumorsphere (3D) condition.
# QM and E PDACs = assay: Relative cell growth in 3D condition upon FFX and/or Oxo treatment (CellTiter Glo); assay type: cell-based, human; conditions: for killing of / sensitivity to FFX of QM cells when Oxo is added to FOLFIRINOX: QM cells compared to E cells, 3D, 2 weeks
# Description: Cell viability was measured using CellTiter Glo assay. […] Then, cells were fixed with 3.7% PFA and stained with crystal violet. Relative colony area was measured using Image J. (d) Images with 2D (Boyden chamber) and 3D invasion assays (type I collagen embedded) of PDAC cell lines incubated with Oxo for 3 days.
# PDAC cell lines [4] = assay: Clonogenic assay (crystal violet, colony area by Image J); assay type: cell-based, human; conditions: 2 weeks
# Description: (§1) FIGS. 3A-D. Graphs showing relative cell growth of (a) QM and (b) E PDACs in 3D condition upon FFX and/or Oxo treatment with indicated concentrations for 2 weeks. Cell viability was measured using CellTiter Glo assay. Images showing growing PDACs (in 3D) under these conditions. (c) Graphs with results for clonogenic assay upon FFX and/or Oxo treatment with indicated concentrations for 2 weeks. Then, cells were fixed with 3.7% PFA and stained with crystal violet. Relative colony area was measured using Image J. (d) Images with 2D (Boyden chamber) and 3D invasion assays (type I collagen embedded) of PDAC cell lines incubated with Oxo for 3 days.
# FIGS. 4A-F. Effects of TAK1 Knockout in PDAC EMT Plasticity. (a) Western blots showing complete ablation of TAK1 across PDAC cell lines. (b) Heatmaps based on RNA-ISH and total RNA-seq showing EMT signatures in TAK1 KO PDAC6 and PDAC9 cell lines. (c) Clonogenic assays for WT (non-targeting single guide RNA, sgRNA) and TAK1 KO cell lines treated with FFX for 2 weeks. Colony area was determined by Image J. (d) Images with 2D invasion assay (Boyden chamber) in TAK1 KO PDAC cell lines. (e) Graphs confirming functional ablation of TAK1 represented by TAK1 downstream activity of p-MEK1/2 and p-ERK1/2 under TGFbeta stimulation. (f) Graphs with results for clonogenic assay upon FFX and/or Takinib treatment with indicated concentrations for 2 weeks.
# PDAC cell lines [5] = assay: 2D (Boyden chamber) and 3D (type I collagen embedded) invasion assays; assay type: cell-based, human; conditions: Oxo for 3 days
# Description: as §1
# MEK = conditions: cited from earlier work
# TAK1 = target: T1, TAK1 (Homo sapiens, UniProt O43318); conditions: cited from earlier work
# T1 sequence (O43318 1-606): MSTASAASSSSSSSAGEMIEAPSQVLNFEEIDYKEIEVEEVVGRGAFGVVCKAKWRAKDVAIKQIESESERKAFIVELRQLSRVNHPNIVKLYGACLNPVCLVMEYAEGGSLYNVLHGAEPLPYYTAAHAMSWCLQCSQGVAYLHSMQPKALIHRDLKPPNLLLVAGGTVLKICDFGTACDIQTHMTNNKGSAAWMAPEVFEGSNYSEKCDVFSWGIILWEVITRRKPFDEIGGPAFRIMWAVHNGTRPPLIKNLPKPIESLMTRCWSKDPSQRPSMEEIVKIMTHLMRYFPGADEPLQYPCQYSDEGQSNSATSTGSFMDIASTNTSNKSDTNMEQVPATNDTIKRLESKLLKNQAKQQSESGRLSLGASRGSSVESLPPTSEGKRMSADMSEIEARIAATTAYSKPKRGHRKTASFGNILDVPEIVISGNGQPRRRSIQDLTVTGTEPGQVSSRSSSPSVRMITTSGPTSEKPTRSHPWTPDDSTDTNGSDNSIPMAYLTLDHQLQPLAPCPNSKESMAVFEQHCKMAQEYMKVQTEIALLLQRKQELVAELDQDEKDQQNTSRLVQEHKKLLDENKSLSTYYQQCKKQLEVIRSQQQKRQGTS
# T1 sequence (Q15750 1-504 partner): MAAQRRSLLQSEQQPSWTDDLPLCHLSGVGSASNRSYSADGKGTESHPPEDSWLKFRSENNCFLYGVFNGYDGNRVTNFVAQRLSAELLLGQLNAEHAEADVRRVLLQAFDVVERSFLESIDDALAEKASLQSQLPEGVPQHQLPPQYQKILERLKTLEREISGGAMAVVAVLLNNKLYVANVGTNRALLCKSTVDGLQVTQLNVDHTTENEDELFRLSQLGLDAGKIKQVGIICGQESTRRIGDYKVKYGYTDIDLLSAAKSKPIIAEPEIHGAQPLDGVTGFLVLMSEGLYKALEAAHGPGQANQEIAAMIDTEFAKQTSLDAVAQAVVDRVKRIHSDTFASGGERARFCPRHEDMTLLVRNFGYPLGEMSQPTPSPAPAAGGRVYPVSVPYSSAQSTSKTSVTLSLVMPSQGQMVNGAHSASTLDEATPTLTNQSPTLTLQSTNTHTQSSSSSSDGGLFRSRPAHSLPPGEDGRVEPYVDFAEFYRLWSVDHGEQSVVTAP
# FLT3 = target: T2, FLT3 (Homo sapiens, UniProt P36888); conditions: cited from earlier work
# T2 sequence (P36888 27-993): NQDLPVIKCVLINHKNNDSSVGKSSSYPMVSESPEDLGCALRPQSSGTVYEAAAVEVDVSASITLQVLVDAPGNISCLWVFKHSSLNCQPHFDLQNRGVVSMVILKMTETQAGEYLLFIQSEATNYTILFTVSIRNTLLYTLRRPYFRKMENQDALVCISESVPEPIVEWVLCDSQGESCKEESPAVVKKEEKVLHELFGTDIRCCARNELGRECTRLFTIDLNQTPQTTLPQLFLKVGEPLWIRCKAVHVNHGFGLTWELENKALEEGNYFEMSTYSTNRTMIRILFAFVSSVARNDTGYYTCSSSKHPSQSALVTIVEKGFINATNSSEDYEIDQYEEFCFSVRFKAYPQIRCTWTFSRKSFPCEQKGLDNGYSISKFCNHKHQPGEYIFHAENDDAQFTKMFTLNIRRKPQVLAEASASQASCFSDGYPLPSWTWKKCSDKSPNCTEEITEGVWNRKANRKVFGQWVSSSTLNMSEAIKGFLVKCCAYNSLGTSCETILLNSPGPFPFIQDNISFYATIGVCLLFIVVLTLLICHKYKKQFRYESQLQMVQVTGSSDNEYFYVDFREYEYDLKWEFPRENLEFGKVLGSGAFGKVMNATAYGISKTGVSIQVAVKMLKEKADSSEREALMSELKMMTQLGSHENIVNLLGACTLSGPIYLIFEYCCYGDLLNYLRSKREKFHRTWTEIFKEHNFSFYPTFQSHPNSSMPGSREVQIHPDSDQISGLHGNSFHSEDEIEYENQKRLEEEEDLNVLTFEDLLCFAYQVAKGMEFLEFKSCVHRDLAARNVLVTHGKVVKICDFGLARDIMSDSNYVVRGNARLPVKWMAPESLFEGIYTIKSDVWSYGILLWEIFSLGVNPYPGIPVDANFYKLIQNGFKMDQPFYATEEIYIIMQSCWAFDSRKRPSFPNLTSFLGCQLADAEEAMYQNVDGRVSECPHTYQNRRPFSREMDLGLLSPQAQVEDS
smiles,measurement,setting,value
"CCCCc1nc(Cl)c(CO)n1Cc1ccc(-c2ccccc2-c2nn[nH]n2)cc1 [Losartan, reference compound]",effect on PDAC cell response to FOLFIRINOX,[1],did not affect
same,effect on CAFs alone,CAF1 monoculture,no effect
same,additional killing when combined with FOLFIRINOX,"[2]; PDAC 3 and PDAC 6, monoculture or co-culture with CAF1",did not demonstrate any additional killing
same,cell growth when combined with FOLFIRINOX,[2]; low FOLFIRINOX settings,increased cell growth
"COc1cc(O)c2c(c1)/C=C/C[C@H](O)[C@H](O)C(=O)/C=C\C[C@H](C)OC2=O [Oxo, (5z)-7-oxozeaenol]",E gene expression (RNA-ISH and RNA sequencing),[3]; listed as (5z)-7-Oxozeaenol,enrichment
same,QM gene expression (RNA-ISH and RNA sequencing),[3]; listed as (5z)-7-Oxozeaenol,decreased
same,E gene expression (RNA-ISH and RNA sequencing),[3]; listed as oxo,increased
same,QM gene expression (RNA-ISH and RNA sequencing),[3]; listed as oxo,significantly suppressed
same,mesenchymal gene expression (Hallmark EMT geneset),"[3]; PDAC 3, 6, and 8",significantly decreased
same,mesenchymal gene expression (Hallmark EMT geneset),[3]; PDAC 9,numerically decreased
same,global mesenchymal gene expression (200 genes of Hallmark EMT geneset),"[3]; all lines tested, with vs without Oxo",numerically lower
same,sensitivity to Oxo as a single agent,QM and E PDACs; E cells BxPC3 and DAN-G,sensitive
same,killing of / sensitivity to FFX of QM cells when Oxo is added to FOLFIRINOX,QM and E PDACs,synergistic increased killing
same,killing of / sensitivity to FFX of QM cells when Oxo is added to FOLFIRINOX,QM and E PDACs; listed as (5z)-7-Oxozeaenol,synergistically increased
same,colony formation,PDAC cell lines [4]; Oxo-treated PDACs,significant reduction
same,invasiveness / invasion,PDAC cell lines [5],significant reduction
same,migratory abilities / migration,PDAC cell lines [5],significant reduction
same,invasiveness / invasion,PDAC cell lines [5]; listed as (5z)-7-Oxozeaenol,reduced
same,migratory abilities / migration,PDAC cell lines [5]; listed as (5z)-7-Oxozeaenol,reduced
same,inhibition of MEK,MEK,inhibit
same,effect on PDAC cell response to FOLFIRINOX,[1],sensitized
same,effect on CAFs alone,CAF1 monoculture,little effect
same,cell killing (cell viability),"[2]; increasing doses, 3 days, monoculture and co-culture",dose-dependent cell killing
same,inhibition of TAK1,TAK1,inhibit
same,inhibition of FLT3,FLT3,inhibit
"CCCn1/c(=N/C(=O)c2cccc(C(N)=O)c2)[nH]c2ccccc21 [Takinib, reference compound]",sensitization of FOLFIRINOX response (clonogenic assay),"PDAC cell lines [4]; QM PDAC cells, FFX and/or Takinib",not able to sensitize
same,inhibition of TAK1,TAK1,selective inhibitor
